Experiments:
Assay type in all cases: in vivo, Mouse/C57BL/6
BLM-induced fibrosis [1] = experiment: Bleomycin (BLM)-induced lung fibrosis in mice: mortality rate over 21 days; settings: doses as Table 1
Protocol: (§1) The mouse species or strain was Mouse/C57BL/6, the mice being 8-10 week old males. Nine groups of 10 mice each were obtained from Charles River Laboratories. Each group was randomized based on body weight. Bleomycin (BLM) was obtained from Euroasias.
(§2) The mice were anesthetized with isoflurane/O2 mixture. Bleomycin (BLM) was then administered to the mice intratracheally (PennCentury)—single bolus, at 2.5 U/kg body weight in 50 μl sterile saline.
(§3) Seven days after the bleomycin is administered, and fibroblasts have generally proliferated, six of the nine groups of IT bleomycin challenged mice were be dosed orally (p.o.) once a day with Bromantane, Ifenoprodil, Radiprodil, Bemithyl, Dexamethasone, or Repirinast at specified amounts per kg of body weight (mg/kg) daily for 14 consecutive days. The amounts are set out in Table 1 below. The vehicle used was 0.5% carboxymethyl cellulose (CMC). Prifenidone was also prepared in 0.5% CMC and administrated orally once a day to one of the nine IT bleomycin challenged mice groups beginning for 14 consecutive days. Vehicle and no-BLM control groups received 0.5% CMC orally for 14 consecutive days.
Mortality Rate: the mortality rate in each group was also observed over 21 days.

[2] = Bleomycin (BLM)-induced lung fibrosis in mice: body weight over 21 days; settings: for Percent Change in Body Weight / Body Weight: doses as Table 1; for Body Weight: group mean
Protocol: as §1, §2, §3
Body Weight: The body weights were measured over 21 days using a laboratory balance.

BLM-induced fibrosis [3] = experiment: Bleomycin (BLM)-induced lung fibrosis in mice: Gomori's Trichrome score of lung sections
Protocol: as §1, §2, §3
On day 21 of the study, 4 hours after the last dose, the mice were sacrificed and plasma was collected and frozen for cytokine analysis (testing for IL-6, IL-12, TGFβ, IL-13 proteins, or fibrosis markers). Bronchoalveolar lavage fluid (BALF) was collected and frozen for optional cytokine analyses and cell counts pending the initial data. The lungs were then excised, weighed and fixed in formalin. Gomori's Trichrome stain, a histological stain, was used to determine collagen content.
Trichrome Score: A trichrome score measures the level of scarring to the lungs caused by the disease. The greater the trichrome score, the greater the scarring.
Formalin fixed lung samples were submitted to affiliated histopathology laboratory for histopathological analysis subjected Gomori's Trichrome stain, a histological stain, which was used to determine collagen content.
Each lung was divided into ten sections. All ten sections were stained and evaluated. A board certified veterinarian pathologist assessed the presence of lung fibrosis and severity score—The expression of collagen (associated with fibrosis) is determined from the ratio of the stained area versus the total area of the lung section.

[4] = doses as Table 1, order: Dexamethasone and Repirinast, followed by Ifenprodil and Radiprodil

## Cc1ccc2c([nH]c(=O)c3c(=O)cc(C(=O)OCCC(C)C)oc32)c1C [Repirinast, Isopentyl 7,8-dimethyl-4,5-dioxo-5,6-dihydro-4H-pyrano[3,2-c]quinoline-2-carboxylate]
BLM-induced fibrosis [1]; deaths/mice per group over 21 days, Vehicle 2/10
  Fatality Number: 1/10
BLM-induced fibrosis [1]; order: Dexamethasone and Repirinast, followed by Ifenprodil and Radiprodil
  percent survival (in words): higher
BLM-induced fibrosis [1]; over 21 days, Vehicle 20%
  Percent Fatality: 10%
[2]; 7-Nov
  Percent Change in Body Weight: 0.0%
  Body Weight: 23.5 g
[2]; 8-Nov
  Percent Change in Body Weight: 0.2%
  Body Weight: 23.7 g
[2]; 9-Nov
  Percent Change in Body Weight: −0.3%
  Body Weight: 23.2 g
[2]; 12-Nov
  Percent Change in Body Weight: −2.0%
  Body Weight: 21.5 g
[2]; 14-Nov
  Percent Change in Body Weight: −1.8%
  Body Weight: 21.8 g
[2]; 16-Nov
  Percent Change in Body Weight: −2.5%
  Body Weight: 21.1 g
[2]; 20-Nov
  Percent Change in Body Weight: −2.2%
  Body Weight: 21.4 g
[2]; 22-Nov
  Percent Change in Body Weight: −1.3%
  Body Weight: 22.3 g
[2]; 26-Nov
  Percent Change in Body Weight: −1.6%
  Body Weight: 21.9 g
[2]; 28-Nov
  Percent Change in Body Weight: −1.3%
  Body Weight: 22.3 g
[2]; doses as Table 1, p.o. once daily
  changes in body weight as compared to the BLM-vehicle group (in words): No significant differences
BLM-induced fibrosis [3]; day 21, BLM 2.5 U/kg intratracheal, p.o. once daily 14 days from day 7, mg/kg: Pirfenidone 300, Bromantane 20, Ifenoprodil 30, Radiprodil 30, Bemithyl 200, Dexamethasone 0.25, Repirinast 90, Normal 1.00, Vehicle 4.59
  Trichrome score (average): 3.16
BLM-induced fibrosis [3]; [4]
  Trichrome score response versus BLM-vehicle group (in words): response was better
  percent reduction in lung fibrosis in comparison to the BLM-vehicle group (in words): higher
BLM-induced fibrosis [3]; from Trichrome scores relative to vehicle and normal groups, day 21, doses as Table 1, p.o. once daily 14 days
  % reduction in fibrosis: 39.8%
BLM-induced fibrosis [3]; oral administration, Dexamethasone 0.25, Repirinast 90, Ifenprodil 30, Radiprodil 30 mg/kg
  improvement in lung fibrosis, loss of body weight, Trichrome score and mortality as compared to BLM-vehicle (conclusion, in words): showed improvement
